From paper PMC8091115, “Redundancy in Aromatic O-Demethylation and Ring-Opening Reactions in Novosphingobium aromaticivorans and Their Impact in the Metabolism of Plant-Derived Phenolics” (Applied and Environmental Microbiology, 2021)

Key:
LigM = target: T1, LigM (Novosphingobium aromaticivorans, UniProt Q2G4C6); experiment: HPLC-MS substrate depletion and product formation; assay type: biochemical; details: tetrahydrofolate as methyl acceptor, anaerobic, 30 C, phosphate buffer
T1 construct: gene Saro_2861; full length, N-terminal His8-TEV tag cleaved, from E. coli B834
T1 sequence (Q2G4C6 entry or part of it): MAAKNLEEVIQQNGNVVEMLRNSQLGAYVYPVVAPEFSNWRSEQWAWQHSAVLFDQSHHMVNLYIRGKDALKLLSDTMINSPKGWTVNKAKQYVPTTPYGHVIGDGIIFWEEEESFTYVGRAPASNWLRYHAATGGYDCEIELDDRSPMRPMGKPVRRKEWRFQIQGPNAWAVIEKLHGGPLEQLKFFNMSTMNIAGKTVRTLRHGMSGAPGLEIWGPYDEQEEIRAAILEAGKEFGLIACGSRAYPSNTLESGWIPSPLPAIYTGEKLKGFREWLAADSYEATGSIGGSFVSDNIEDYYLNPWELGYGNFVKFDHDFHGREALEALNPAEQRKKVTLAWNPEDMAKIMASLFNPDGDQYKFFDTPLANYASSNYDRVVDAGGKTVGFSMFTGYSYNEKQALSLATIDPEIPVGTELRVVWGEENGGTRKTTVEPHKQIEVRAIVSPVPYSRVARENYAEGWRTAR

DesA = target: T2, DesA (Novosphingobium aromaticivorans, UniProt Q2G5N3); experiment: HPLC-MS substrate depletion and product formation; assay type: biochemical; details: tetrahydrofolate as methyl acceptor, anaerobic, 30 C, phosphate buffer
T2 construct: gene Saro_2404; full length, N-terminal His8-TEV tag cleaved, from E. coli B834; b91 prints Saro_2402 (probable misprint, Saro_2404 everywhere else)
T2 sequence (Q2G5N3 entry or part of it): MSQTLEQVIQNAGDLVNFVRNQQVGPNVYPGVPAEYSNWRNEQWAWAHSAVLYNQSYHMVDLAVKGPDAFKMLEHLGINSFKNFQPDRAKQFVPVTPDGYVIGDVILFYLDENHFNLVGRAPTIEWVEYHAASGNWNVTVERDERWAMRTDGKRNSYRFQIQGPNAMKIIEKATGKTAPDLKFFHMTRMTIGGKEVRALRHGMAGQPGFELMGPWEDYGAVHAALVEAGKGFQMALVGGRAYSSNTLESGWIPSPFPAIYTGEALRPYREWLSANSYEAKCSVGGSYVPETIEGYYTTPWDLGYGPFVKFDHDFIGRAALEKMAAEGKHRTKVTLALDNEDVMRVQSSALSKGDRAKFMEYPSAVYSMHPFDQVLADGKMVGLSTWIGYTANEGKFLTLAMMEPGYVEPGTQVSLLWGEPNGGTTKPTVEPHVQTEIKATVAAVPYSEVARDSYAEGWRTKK

Row | SMILES | HPLC-MS substrate depletion and product formation (LigM) | HPLC-MS substrate depletion and product formation (DesA)
1 | COc1cc(C(=O)O)cc(O)c1O [3-MGA] | LigM protein of N. aromaticivorans was able to convert 3-MGA into GA | 
2 | COc1cc(C(=O)O)ccc1O [vanillic acid] | able to convert 3-MGA into GA and vanillic acid into PCA at comparable rates | demethylated both syringic acid and, somewhat more slowly, vanillic acid
